Measured values as given in US20260102324A1, “PERFUMING COMPOSITIONS COMPRISING A 2-(ALKYLSULFONYL)OCTAN-4-ONE” (FIRMENICH SA, priority 2022, published 2026).

Experiments:
Format in all cases: physicochemical
[1] = Solubility measurements by light transparency (Crystalline PV instrument) on heating to 60° C. and cooling
Description: (§1) Solid 2-(dodecylsulfonyl)octan-4-one was mixed with different solvents and transferred to a 8 mL vial equipped with an overhead stirrer. The sample was placed in a Crystalline PV instrument (Technobis, The Netherlands). Heating and cooling steps were applied under mechanical stirring, and the samples were monitored by following transparency via a LED light beam that passes through the vial. Full (100%) transparency is attained when 2-(dodecylsulfonyl)octan-4-one is completely dissolved in the solvent. On the other hand, when the measured values of transparency are below 100% the dissolution process is still incomplete.
(§2) A first heating step was carried out by quickly (+5° C./min) heating the sample above its solubility temperature to 60° C. After complete dissolution, a cooling ramp to 1° C. was applied (−2° C./min), i.e. below the solubility temperature of the sample, where the sample was kept stirring until 2-(dodecylsulfonyl)octan-4-one has crystallized. Subsequently a second heating step was carried out by applying a shallow heating ramp (+0.1° C./min) in order to dissolve the material under quasi-isothermal conditions. The transparency of the sample was monitored as a function of time during the heating ramp. Once the signal has attained 100% transparency, the dissolution process was complete and the respective temperature was taken as the solubilization temperature (T_sol).
(§3) Following the methodology described above, 2-(dodecylsulfonyl)octan-4-one was mixed with various solvents/liquid carriers that are suitable for perfumery compositions or with perfumery raw materials at a concentration of 5 wt. % and the solubilization temperature has been determined. The solvents and perfumery raw materials used and the respective solubilization temperatures are depicted in Tables 1-3 below.

[2] = Determination of the solubilization temperature (T_sol), shallow heating ramp to 100% transparency
Description: as §1, §2
as §3, with “below. […]” for “below.”

[3] = Solubility at 25° C. from exponential fit of temperature-solubility curves; details: from extrapolation of temperature-solubility curves
Description: The solubility of 2-(dodecylsulfonyl)octan-4-one at 25° C. in various solvents or perfumery raw materials has been determined based on the data presented in Table 9. For each solvent or perfumery raw material, the measured solubility as a function of temperature has been fitted to an exponential function. The solubility at 25° C. has been obtained by extrapolation or interpolation of this exponential function. The results/exponential curves are shown in the Figure (black triangle: DIPG, grey squares: IPM, open diamonds: Hedione®, black circles: gamma-nonalactone and Cetiol® Ultimate (80/20); the continuous lines represent exponential functions fit to the experimental data).

[4] = 5 wt. % in Dimethylglutarate (DBE-5)
[5] = 5 wt. % in Dipropylene glycol (DIPG)
[6] = 5 wt. % in Fragrance composition F1
[7] = 5 wt. % in Fragrance composition F2
[8] = 5 wt. % in Fragrance composition F3
[9] = 5 wt. % in Fragrance composition F4
[10] = 5 wt. % in Fragrance composition F5
[11] = 5 wt. % in Isopropyl myristate (IPM)
[12] = 5 wt. % in gamma-Nonalactone/Cetiol ® Ultimate (80/20; w/w)
[13] = 5 wt. % in gamma-Valerolactone/Isopropyl Myristate (IPM) (70/30 w/w)

- Soluble after cooling to 25° C. ([1]; 5 wt. % in Cetiol ® Ultimate): not capable of fully dissolving and no
- Soluble at 60° C. ([1]; 5 wt. % in Cetiol ® Ultimate): yes
- Soluble after cooling to 25° C. [1, 4]: not capable of fully dissolving and no
- Soluble at 60° C. [1, 4]: yes
- Soluble after cooling to 25° C. [1, 5]: not capable of fully dissolving and no
- Soluble at 60° C. [1, 5]: yes
- Soluble after cooling to 25° C. ([1]; 5 wt. % in Ethyl lactate): not capable of fully dissolving and no
- Soluble at 60° C. ([1]; 5 wt. % in Ethyl lactate): yes
- Soluble after cooling to 25° C. [1, 6]: yes
- Soluble at 60° C. [1, 6]: yes
- Soluble after cooling to 25° C. [1, 7]: yes
- Soluble at 60° C. [1, 7]: yes
- Soluble after cooling to 25° C. [1, 8]: yes
- Soluble at 60° C. [1, 8]: yes
- Soluble after cooling to 25° C. [1, 9]: yes
- Soluble at 60° C. [1, 9]: yes
- Soluble after cooling to 25° C. [1, 10]: yes
- Soluble at 60° C. [1, 10]: yes
- Soluble after cooling to 25° C. ([1]; 5 wt. % in Hedione ®): yes
- Soluble at 60° C. ([1]; 5 wt. % in Hedione ®): yes
- Soluble after cooling to 25° C. [1, 11]: not capable of fully dissolving and no
- Soluble at 60° C. [1, 11]: yes
- Soluble after cooling to 25° C. ([1]; 5 wt. % in Triacetine): not capable of fully dissolving and no
- Soluble at 60° C. ([1]; 5 wt. % in Triacetine): yes
- Soluble after cooling to 25° C. ([1]; 5 wt. % in Triethyl citrate): not capable of fully dissolving and no
- Soluble at 60° C. ([1]; 5 wt. % in Triethyl citrate): yes
- Soluble after cooling to 25° C. ([1]; 5 wt. % in gamma-Decalactone): yes
- Soluble at 60° C. ([1]; 5 wt. % in gamma-Decalactone): yes
- Soluble after cooling to 25° C. [1, 12]: yes
- Soluble at 60° C. [1, 12]: yes
- Soluble after cooling to 25° C. ([1]; 5 wt. % in gamma-Undecalactone): yes
- Soluble at 60° C. ([1]; 5 wt. % in gamma-Undecalactone): yes
- Soluble after cooling to 25° C. ([1]; 5 wt. % in gamma-Valerolactone): yes
- Soluble at 60° C. ([1]; 5 wt. % in gamma-Valerolactone): yes
- Soluble after cooling to 25° C. [1, 13]: yes
- Soluble at 60° C. [1, 13]: yes
- T_sol ([2]; 5 wt. % in Cetiol ® Ultimate): 45.4 °C
- T_sol [2, 4]: 27.3 °C
- T_sol [2, 5]: 44.6 °C
- T_sol ([2]; 5 wt. % in Ethyl lactate): 26.5 °C
- T_sol [2, 6]: 21.1 °C
- T_sol [2, 7]: 19.8 °C
- T_sol [2, 8]: 17.8 °C
- T_sol [2, 9]: 24.0 °C
- T_sol [2, 10]: 16.3 °C
- T_sol ([2]; 5 wt. % in Hedione ®): 21.0 °C
- T_sol [2, 11]: 33.5 °C
- T_sol ([2]; 5 wt. % in Triacetine): 41.1 °C
- T_sol ([2]; 5 wt. % in Triethyl citrate): 36.2 °C
- T_sol ([2]; 5 wt. % in gamma-Decalactone): 14.6 °C
- T_sol [2, 12]: 10.5 °C
- T_sol ([2]; 5 wt. % in gamma-Undecalactone): 15.3 °C
- T_sol ([2]; 5 wt. % in gamma-Valerolactone): 23.0 °C
- T_sol [2, 13]: 15.3 °C
- Solubility of 2-(dodecylsulfonyl)octan-4-one at 25° C. ([3]; in gamma-Valerolactone/IPM (70:30 w/w)): 11.3 wt. %
- Solubility of 2-(dodecylsulfonyl)octan-4-one at 25° C. ([3]; in gamma-Valerolactone): 5.5 wt. %
Structure (SMILES): CCCCCCCCCCCCS(=O)(=O)C(C)CC(=O)CCCC (centres unmarked) [2-(dodecylsulfonyl)octan-4-one]
